Values after ≈ are worked out from the molar mass of the structure shown.
What was measured:
[1] = tested on: PC-3 prostate cancer cell line; assay: MTT analysis, anticancer activity; format: cell-based, human; conditions: Homo sapiens, 48 hr
Protocol: To be specific, SK-Hep-1 cell, which is liver cancer cell line, was added to 96-well microplate (Falcon, USA) with the concentration of 3×10^5 cells/ml by 100 μl per well. Each extracted and separated substance dissolved in DMSO was added to the well by 100 μl for the final concentration to be from 50 μg/ml to 0.0244 μg/ml, with 200 μl of final volume. Each cell was cultured for 48 hr in a culture medium of 37° C. and 5% CO2. After cultivation, 20 μl of phosphate buffer solution containing 5 mg/ml of MTT (3-[4,5-dimethylthiazol-2-yl]-2,5-diphenyltetrazoliumbromide, Sigma Co.) reagent was added to each well, and then cultured for 4 hr. After taking 100 μl of supernant from each culture medium, 100 μl of 0.04N hydrochloric acid-isopropanol was added. After letting alone overnight, absorbance was measured at 560 nm using automatic Eliza detector (Molecular Divices Corp., USA). Anticancer activity of each extracted and separated substance was calculated from the absorbance value by Equation 1 and was expressed in terms of cell.
Average Existence Rate(%)=(Absorbance of Treated Group)/(Absorbance of Control Group)×100

[2] = tested on: BT-549; assay: MTT analysis, anticancer activity; format: cell-based, human; conditions: Homo sapiens, BT-549; MTT, 48 hr
[3] = tested on: SK-BR-3; assay: MTT analysis, anticancer activity; format: cell-based, human; conditions: Homo sapiens, SK-BR-3, 48 hr
[4] = tested on: HeLa; assay: MTT analysis, anticancer activity; format: cell-based, human; conditions: Homo sapiens, HeLa, 48 hr
[5] = tested on: HS-746T; assay: MTT analysis, anticancer activity; format: cell-based, human; conditions: Homo sapiens, Hs746T; MTT, 48 hr
[6] = tested on: HT1080; assay: MTT analysis, anticancer activity; format: cell-based, human; conditions: Homo sapiens, HT-1080, 48 hr
[7] = tested on: SK-MEL-28; assay: MTT analysis, anticancer activity; format: cell-based, human; conditions: Homo sapiens, SK-MEL-28, 48 hr
[8] = tested on: SK-OV-3; assay: MTT analysis, anticancer activity; format: cell-based, human; conditions: Homo sapiens, SK-OV-3; MTT, 48 hr
[9] = tested on: 3T3-L1; assay: MTT analysis, cytotoxicity against normal cell line; format: cell-based, mouse; conditions: Mus musculus, 3T3-L1; MTT, 48 hr
[10] = tested on: Hep-2; assay: Adhesion of cancer cell to Laminin; format: cell-based, human
Protocol: (§1) After treating HNP-98701 on tissue culture plate coated with the matrices, cancer cell was attached thereupon. To be specific, 50 μl/ml of […], 2 μg/ml of laminin, 2 μg/ml of collagen and 2 μg/ml of gelatin were coated on the surface of 96-well microplate (Corning Co.) per well. After solidifying for 2 hr, HNP-98701 was added to each well and treated for 1 hr. […] After treating the substances for 1 hr, cancer cell was added to each cell, and it was cultured for 3 hr. […] After culturing these cell lines for 3 hr, they were centrifuged. After collecting biomass only, it was washed with distilled water or PBS buffer solution for three times. […] Then, absorbance was measured at 560-405 nm with automatic Eliza detector (Molecular […] Corp., USA). […] Each experiment was performed for three times repeatedly.

[11] = tested on: SK-Hep-1; assay: Adhesion of cancer cell to Laminin; format: cell-based, human
Protocol: as §1

[12] = tested on: SK-MEL-28; assay: Adhesion of cancer cell to Laminin; format: cell-based, human
Protocol: as §1

IC50 [1]: 0.575 µg/mL (≈ 1.06 µM) | IC50 [2]: 0.438 µg/mL (≈ 0.806 µM) | IC50 [3]: 0.705 µg/mL (≈ 1.3 µM) | IC50 [4]: 0.703 µg/mL (≈ 1.29 µM) | IC50 [5]: > 50 µg/mL | IC50 [6]: 0.719 µg/mL (≈ 1.32 µM) | IC50 [7]: 0.75 µg/mL (≈ 1.38 µM) | IC50 [8]: > 50 µg/mL
Structure (SMILES): COc1cccc2c1C(=O)c1c(O)c3c(c(O)c1C2=O)C[C@@](O)(C(=O)CO)C[C@@H]3O[C@H]1C[C@H](N)[C@H](O)[C@H](C)O1 [Adriamycin, adriamycin (doxorubicin)]
IC50 [9]: 2 µg/mL (≈ 3.68 µM) | Adhesion Hep-2 (%) ([10]; 0.1 μg/ml): 106.76% | Adhesion Hep-2 (%) ([10]; 1 μg/ml): 105.13% | Adhesion Hep-2 (%) ([10]; 10 μg/ml): 98.75% | Adhesion SK-Hep-1 (%) ([11]; 0.1 μg/ml): 96.18% | Adhesion SK-Hep-1 (%) ([11]; 1 μg/ml): 96.92% | Adhesion SK-Hep-1 (%) ([11]; 10 μg/ml): 95.86% | Adhesion SK-MEL-28 (%) ([12]; 0.1 μg/ml): 108.40% | Adhesion SK-MEL-28 (%) ([12]; 1 μg/ml): 109.66% | Adhesion SK-MEL-28 (%) ([12]; 10 μg/ml): 113.03%

— patent publication US20040024055A1, “Pharmaceutical composition containing the exract of saururus chinensis baill useful as an anticancer agent and a process for the preparation thereof” (priority 2000, published 2004)
